Test results published in patent publication US20120157478A1, “Hair Care Compositions and Methods to Improve Hair Appearance” (priority 2010, published 2012).

Test system: primary human dermal papilla cells
Test: Survival of metabolically stressed primary human dermal papilla cells (ATP, Cell Titer Glo)
Assay type: cell-based
Settings: for Survival: 48 hr stress, Vehicle = 1.00; for benefit in increasing the survival of stressed dermal papilla cells (in words): additional testing, individual components versus mixture of the three
From the text: The dermal papilla, in normal human hair, is the control center for hair diameter and growth. Increasing survival of dermal papilla cells in situ leads to increased hair diameter and to a longer anagen phase which results in longer hair, a higher hair density, and potentially delayed emergence of gray hair. The appearance of this hair results in healthier, younger looking hair. Accordingly, an increase in survival of dermal papilla cells correlates with healthier hair showing an increase in hair diameter, longer hair, higher hair density, and a delayed on-set of gray hair.
Primary human dermal papilla cells were metabolically stressed for 48 hours in reduced standard tissue culture media. During this period of stress the cells were treated with the mixtures below. After 48 hr the metabolic activity of the cells was measured by the amount of ATP using the Cell Titer Glo™ kit (Promega).

## CC(C)(CO)[C@@H](O)C(=O)NCCCO [Panthenol, panthenol]
Panthenol 0.03%, first series
  Survival: 1.02
Panthenol 0.3%, second series
  Survival: 0.75
  benefit in increasing the survival of stressed dermal papilla cells (in words): little benefit

## O=c1cc(-c2ccc(O)cc2)oc2cc(O)cc(O)c12 [apigenin, 5,7-Dihydroxy-2-(4-hydroxyphenyl)-4H-1-benzopyran-4-one]
Metabolically stressed 48 hr in reduced standard tissue culture media, ATP by Cell Titer Glo, concentrations not given
  increase in the hair follicle cells that survived: 122%

## Cn1c(=O)c2c(ncn2C)n(C)c1=O [Caffeine, caffeine]
Caffeine 0.02%, first series
  Survival: 0.94
Caffeine 0.05%, second series
  Survival: 0.98
  benefit in increasing the survival of stressed dermal papilla cells (in words): little benefit

## NC(=O)c1cccnc1 [Niacinamide, niacinamide]
Niacinamide 0.5 mM, second series
  Survival: 1.02
Niacinamide 1.5 mM, first series
  Survival: 0.71
  benefit in increasing the survival of stressed dermal papilla cells (in words): little benefit
